From article PMC6271988, “New Potentially Active Pyrazinamide Derivatives Synthesized Under Microwave Conditions” (Molecules, 2014) come the findings set out here.

One may read the IC80 as the concentration needed for an effect of 80%. What is called IC50 is the midpoint of a concentration-inhibition curve. Lower therefore signals greater potency.

Series [1] can be described thus: Lipophilicity HPLC determination (logk). The series is classed as physicochemical. Conditions: HPLC capacity factor, C18, MeOH 70%/H2O 30%, 30 °C.
The subject of series [2] is PET in spinach chloroplasts. Put plainly: Photosynthetic electron transport (PET) inhibition, DCPIP photoreduction. The format is biochemical, Spinacia oleracea L. Conditions: for IC50: DCPIP photoreduction. The protocol:
The inhibition of photosynthetic electron transport (PET) in spinach chloroplasts was determined spectrophotometrically (Genesys 6, Thermo Scientific, Madison, WI, USA) using an artificial electron acceptor 2,6-dichlorophenol-indophenol (DCPIP). The rate of photosynthetic electron transport was monitored as a photoreduction of DCPIP. Chloroplasts were prepared from Spinacia oleracea L.. The measurements were carried out in phosphate buffer (0.02 mol/L, pH 7.2) containing sucrose (0.4 mol/L), MgCl2 (0.005 mol/L) and NaCl (0.015 mol/L). The chlorophyll concentration was 30 mg/L and the samples were irradiated (~100 W/m^2 with 10 cm distance) with a halogen lamp (250 W). […] The studied compound were dissolved in DMSO due to their limited water solubility. […] The efficiency of studied compounds was expressed as 50% inhibition concentration relative to the untreated control. The standard for these measurements was DCMU (Diurone®).

In series [3] the test system is Aspergillus fumigatus 231. Put plainly: Antifungal evaluation, microdilution broth method. To be noted: AF. The series is classed as cell-based. The protocol: (§1) Antifungal evaluation was also accomplished with microdilution broth method. On the contrary, there was used RPMI 1640 broth with glutamine as medium and conditions were humid and dark atmosphere, pH 7.0 (adjusted with 0.165 M morpholinepropanesulfonic acid, MOPS) and 35 °C. 8 fungal strains were used (Candida albicans ATCC 44859, Candida tropicalis 156, Candida krusei E28, Candida glabrata 20/I, Trichosporon asahii 1188, Aspergillus fumigatus 231, Lichtheimia corymbifera 272, Trichophyton mentagrophytes 445) together with four antimycotic standards amphotericin B, voriconazole, nystatin and fluconazole.
For orientation: Dilution methods test growth across graded concentrations, often in twofold steps.

For series [4], the system named is Candida albicans ATCC 44859. Put plainly: Antifungal evaluation, microdilution broth method. The format is cell-based. To be noted: CA. The protocol:
as §1

For series [5], the system named is Candida glabrata 20/I. Put plainly: Antifungal evaluation, microdilution broth method. The format is cell-based. Conditions: CG. How it is done:
as §1

The subject of series [6] is Candida krusei E28. As to the kind of experiment: Antifungal evaluation, microdilution broth method. To be noted: CK. The series is classed as cell-based. How it is done: as §1
Series [7] deals with Candida tropicalis 156. Put plainly: Antifungal evaluation, microdilution broth method. The format is cell-based. To be noted: CT. How it is done: as §1
Series [8] deals with Lichtheimia corymbifera 272. Put plainly: Antifungal evaluation, microdilution broth method. The format is cell-based. Conditions: LC. The protocol:
as §1

Series [9] concerns Trichophyton mentagrophytes 445. Put plainly: Antifungal evaluation, microdilution broth method. The format is cell-based. To be noted: TM. The protocol: as §1
Series [10] has as its system Trichosporon asahii 1188. Put plainly: Antifungal evaluation, microdilution broth method. The series is classed as cell-based. Conditions: TA. The protocol: as §1
For series [11], the system named is spectrum of fungi tested (8 fungal strains). As to the kind of experiment: Antifungal evaluation, summary over the fungi tested. The series is classed as cell-based. Conditions: fungi tested, less active than the standards; read-out: IC80 antifungal. How it is done: as §1
Where [12] appears, read: Aspergillus fumigatus, 231, 24 h.
Setting [13] is: Aspergillus fumigatus, 231, 48 h.
[14] abbreviates: Candida albicans, ATCC44859, 24 h.
Where [15] appears, read: Candida albicans, ATCC44859, 48 h.
[16] abbreviates: Nakaseomyces glabratus, 20/I, 24 h.
Where [17] appears, read: Nakaseomyces glabratus, 20/I, 48 h.
Setting [18] is: Lichtheimia corymbifera, 272, 24 h.
The mark [19] stands for this setting: Lichtheimia corymbifera, 272, 48 h.
The mark [20] stands for this setting: Trichophyton mentagrophytes, 445, 72 h.
Setting [21] is: Trichophyton mentagrophytes, 445, 120 h.
[22] abbreviates: Trichosporon asahii, 1188, 24 h.
The mark [23] stands for this setting: Trichosporon asahii, 1188, 48 h.

In turn, “3-(Piperidin-1-ylamino)pyrazine-2-carboxamide [Compound 15]” gave a logk in [1] of −0.2333. For the same compound, in series [2], the “PET inhibition (result in words)” value is given as “did not inhibit PET”.

As to “3-(Pyrrolidin-1-ylamino)pyrazine-2-carboxamide [Compound 14]”, the logk in series [1] is recorded as −0.4889. The “PET inhibition (result in words)” value in series [2] is “did not inhibit PET”.

Take `C[C@@H]1[C@H](O)[C@@H](C)/C=C/C=C/C=C/C=C/C=C/C=C/C=C/[C@H](O[C@@H]2O[C@H](C)[C@@H](O)[C@H](N)[C@@H]2O)C[C@@H]2O[C@](O)(C[C@@H](O)C[C@@H](O)[C@H](O)CC[C@@H](O)C[C@@H](O)CC(=O)O[C@H]1C)C[C@H](O)[C@H]2C(=O)O` [AMP, amphotericin B]: the IC80 came to 1.95 µM in series [3] (setting [12]); 1.95 µM in series [3] (setting [13]); 0.12 µM in series [4] (setting [14]); 0.49 µM in [4] (setting [15]); 0.98 µM in series [5] (setting [16]); 1.95 µM in series [5] (setting [17]). For the same compound, the IC80 in series [6] (Pichia kudriavzevii, E28, 24 h) amounted to 1.95 µM; in [6] (Pichia kudriavzevii, E28, 48 h), 1.95 µM; in [7] (Candida tropicalis, 156, 24 h) it was 1.95 µM; in [7] (Candida tropicalis, 156, 48 h), 1.95 µM; in [8] (setting [18]) it was 7.81 µM; in series [8] (setting [19]), 7.81 µM. In addition, the IC80 worked out at 1.95 µM in series [9] (setting [20]), 1.95 µM in series [9] (setting [21]), 0.49 µM in series [10] (setting [22]) and 0.98 µM in series [10] (setting [23]).

In the case of `CNc1nccnc1C(N)=O` [Compound 1, 3-(Methylamino)pyrazine-2-carboxamide], the logk in [1] is reported as −0.4028. Moreover, the “PET inhibition (result in words)” value in series [2] is given as “did not inhibit PET”.

`CCNc1nccnc1C(N)=O` [Compound 2, 3-(Ethylamino)pyrazine-2-carboxamide] registered a logk in series [1] of −0.2014. Further, in series [2], the “PET inhibition (result in words)” value is given as “did not inhibit PET”.

Compound `CCCNc1nccnc1C(N)=O` [Compound 3, 3-(Propylamino)pyrazine-2-carboxamide] showed a logk in [1] of 0.0038. Half-maximal inhibition in [2] (IC50) required 1590 µM.

`CCCCNc1nccnc1C(N)=O` [Compound 4, 3-(Butylamino)pyrazine-2-carboxamide] displayed a logk in [1] of 0.2287. This compound also came in with an IC50 in series [2] of 203 µM. In addition, in series [11], the IC80 was not below 250 µM.

On to `CCC(C)(C)Nc1nccnc1C(N)=O` [Compound 6, 3-(tert-Pentylamino)pyrazine-2-carboxamide], for which the logk in series [1] came to 0.5468. In [2], the IC50 came out at 480 µM.

Take `CCCCCCCNc1nccnc1C(N)=O` [Compound 8, 3-(Heptylamino)pyrazine-2-carboxamide]: in [1], the logk is 0.9198. Further, the IC80 in series [11] was not below 250 µM.

With `CCCCCCCCNc1nccnc1C(N)=O` [Compound 9, 3-(Octylamino)pyrazine-2-carboxamide], the logk in series [1] worked out at 1.1533. Further, in [2], half-maximal inhibition (IC50) required 14.3 µM.

Compound `CCCCN(CCCC)c1nccnc1C(N)=O` [Compound 10, 3-(Dibutylamino)pyrazine-2-carboxamide] came in with a logk in series [1] of 0.5197. Further, the “PET inhibition (result in words)” value in [2] is on record as “did not inhibit PET”.

Turning to `NC(=O)c1nccnc1NC1CCCC1` [Compound 11, 3-(Cyclopentylamino)pyrazine-2-carboxamide], the logk in series [1] is listed as 0.2537. Also, the IC80 in series [3] (setting [12]) is 500 µM; in series [3] (setting [13]) it was more than 500 µM; in series [4] (setting [14]), 500 µM; in [4] (setting [15]) it was more than 500 µM; in [5] (setting [16]), 250 µM; in series [5] (setting [17]), more than 500 µM. For the same compound, the IC80 in [6] (Pichia kudriavzevii, E28, 24 h) was 250 µM; in series [6] (Pichia kudriavzevii, E28, 48 h) it was 500 µM; in series [7] (Candida tropicalis, 156, 24 h), more than 500 µM; in series [7] (Candida tropicalis, 156, 48 h) it was more than 500 µM; in series [8] (setting [18]), more than 500 µM; in series [8] (setting [19]), more than 500 µM. The IC80 in series [9] (setting [20]) was 500 µM; in series [9] (setting [21]) it was 500 µM; in series [10] (setting [22]), 500 µM; in [10] (setting [23]), more than 500 µM; in series [11], not below 250 µM. The compound further had an IC50 in [2] of 25.8 µM.

In series [1], `NC(=O)c1nccnc1N1CCOCC1` [Compound 16, 3-(Morpholin-4-yl)pyrazine-2-carboxamide] displayed a logk of −0.6238. Also, the “PET inhibition (result in words)” value in series [2] is “did not inhibit PET”.

In the case of `CN1CCN(c2nccnc2C(N)=O)CC1` [Compound 17, 3-(4-Methylpiperazin-1-yl)pyrazine-2-carboxamide], the logk in [1] is given as −0.4253. For the same compound, the “PET inhibition (result in words)” value in series [2] was “did not inhibit PET”.

`NC(=O)c1nccnc1N1CCNCC1` [Compound 18, 3-(Piperazin-1-yl)pyrazine-2-carboxamide] yielded a logk in series [1] of −2.3522. Moreover, the “PET inhibition (result in words)” value in series [2] is reported as “did not inhibit PET”.

Compound `CN(C)C(=O)Nc1ccc(Cl)c(Cl)c1` [DCMU, 3-(3,4-dichlorophenyl)-1,1-dimethylurea, reference compound] displayed an IC50 in series [2] of 1.9 µM.

Turning to `OC(Cn1cncn1)(Cn1cncn1)c1ccc(F)cc1F` [FLU, fluconazole], the IC80 in series [3] (setting [12]) is more than 500 µM; in series [3] (setting [13]), more than 500 µM; in [4] (setting [14]), 0.24 µM; in [4] (setting [15]), 0.24 µM; in [5] (setting [16]) it was 31.2 µM; in [5] (setting [17]), 250 µM. Also, the IC80 was 125 µM in series [6] (Pichia kudriavzevii, E28, 24 h); 250 µM in series [6] (Pichia kudriavzevii, E28, 48 h); more than 500 µM in [7] (Candida tropicalis, 156, 24 h); more than 500 µM in series [7] (Candida tropicalis, 156, 48 h); more than 500 µM in series [8] (setting [18]); more than 500 µM in [8] (setting [19]). Besides, the IC80 in series [9] (setting [20]) turned out to be 7.81 µM; in series [9] (setting [21]) it was 125 µM; in series [10] (setting [22]), 250 µM; in series [10] (setting [23]) it was 500 µM.

`C[C@@H]1[C@H](O)[C@@H](C)/C=C/C=C/CC/C=C/C=C/C=C/C=C/C(O[C@H]2O[C@H](C)[C@@H](O)[C@H](N)[C@@H]2O)CC2O[C@](O)(CC(O)C(O)CCC(O)CC(O)CC(O)CC(=O)O[C@H]1C)CC(O)C2C(=O)O` (stereo partly drawn) [NYS, nystatin]: the IC80 in series [3] (24 h) was 1.95 µM; in [3] (48 h), 3.9 µM; in [4] (24 h), 0.98 µM; in [4] (48 h), 1.95 µM; in series [5] (24 h) it was 1.95 µM; in series [5] (48 h) it was 3.9 µM. Further, the IC80 in [6] (24 h) stood at 1.95 µM; in series [6] (48 h) it was 3.9 µM; in series [7] (24 h), 1.95 µM; in [7] (48 h) it was 3.9 µM; in [8] (24 h), 15.6 µM; in series [8] (48 h), 31.2 µM. In addition, the IC80 is 3.9 µM in [9] (72 h), 7.81 µM in series [9] (120 h), 1.95 µM in series [10] (24 h) and 1.95 µM in series [10] (48 h).

On to `C[C@@H](c1ncncc1F)[C@](O)(Cn1cncn1)c1ccc(F)cc1F` [VOR, voriconazole], for which the IC80 in series [3] (setting [12]) stood at 0.49 µM; in series [3] (setting [13]), 0.98 µM; in series [4] (setting [14]) it was 0.008 µM; in series [4] (setting [15]), 0.008 µM; in [5] (setting [16]) it was 250 µM; in [5] (setting [17]) it was 250 µM. For the same compound, the IC80 was 0.98 µM in [6] (Pichia kudriavzevii, E28, 24 h); 1.95 µM in series [6] (Pichia kudriavzevii, E28, 48 h); 250 µM in series [7] (Candida tropicalis, 156, 24 h); 250 µM in series [7] (Candida tropicalis, 156, 48 h); 250 µM in [8] (setting [18]); 250 µM in [8] (setting [19]). Further, the IC80 amounted to 0.06 µM in [9] (setting [20]), 0.12 µM in [9] (setting [21]), 7.81 µM in series [10] (setting [22]) and 31.2 µM in [10] (setting [23]).
